# Test results: PubChem BioAssay AID1996
# Settings: buffer; pH 7.4; 200.0 µM
row,SMILES,solubility kinetic
1,Nc1c(C(=O)Nc2ccccc2F)sc2nc(-c3cccnc3)ccc12,4.2 µg/mL
2,O=C(Nc1ccccc1)c1ccc(NC(=O)C2CC2)cc1,1.2 µg/mL
3,CCOCCCNC(=O)C1c2ccccc2Oc2ccccc21,13.6 µg/mL
4,Cc1ccc(Cn2ccsc2=NC(=O)COC(=O)c2ccc(O)cc2O)cc1,2.7 µg/mL
5,O=C(NCC1CCCCC1)c1cccnc1,31.1 µg/mL
6,CCN1C(=O)CC(c2ccc(OC(C)C)cc2)C1=O (stereo unspecified),> 39.2 µg/mL
7,Cc1nn(C)c(Sc2ccccn2)c1[N+](=O)[O-],> 37.5 µg/mL
8,COc1ccc(C=O)c2[nH]c3c(Cl)ncnc3c12,3.4 µg/mL
9,CC(C)(c1ccccc1)c1ccc(OCCN2CCCC2)cc1,29.2 µg/mL
10,Cc1csc(=O)n1CCC(=O)NCc1ccc(F)cc1,> 44.2 µg/mL
11,CNC(=O)COC(=O)CNC(=O)c1cc(Cl)cc([N+](=O)[O-])c1,> 49.5 µg/mL
12,Cc1nnc(SCc2nnc(-c3cccs3)o2)n1C,> 44 µg/mL
13,CCOC(=O)CCn1c(=S)n(CCC(=O)OCC)c2ccccc21,49.5 µg/mL
14,Cc1ccc2c(C(=O)CN3CCCC(C)C3)c(C)[nH]c2c1 (stereo unspecified),39.3 µg/mL
15,OCC[N+]12CCC(CC1)C(C(O)(c1ccccc1)c1ccccc1)C2 (stereo unspecified),> 50.8 µg/mL
16,NC(=O)CCN1CCN(S(=O)(=O)/C=C/c2ccccc2)CC1,42.4 µg/mL
17,O=C1CSC(c2ccccn2)N1c1ccc(F)cc1F (stereo unspecified),> 43.8 µg/mL
18,COc1ccc(Cc2nc3ccccc3[nH]c2=O)cc1,4.7 µg/mL
19,O=C(Nc1cccc(/C=C/c2ccccn2)c1)c1cc(Cl)ccn1,2.1 µg/mL
20,CN1CCC(CNC(=O)Nc2csc3ccccc23)CC1,> 45.5 µg/mL
21,CSc1ccc(CN2CCN(C(=O)Cc3ccccc3)CC2)cc1,28.9 µg/mL

row,SMILES,solubility kinetic
1,Nc1nc(NCC(=O)O)nc(N2CCCCCC2)c1[N+](=O)[O-],44.1 µg/mL
2,Cn1cccc1C(=O)NCc1ccc(Cl)cc1,> 37.3 µg/mL
3,COC(=O)c1c(C)oc(C)c1S(=O)(=O)Nc1ccc(C(C)C)cc1,7.2 µg/mL
4,O=C(COC(=O)c1ccco1)NC1CCCc2ccccc21 (stereo unspecified),> 44.9 µg/mL
5,Cc1csc(NC(=O)Cc2c(F)cccc2Cl)n1,36.4 µg/mL
6,Cc1ccc(/C=C/S(=O)(=O)NCCC(=O)NCc2ccccc2F)cc1,9 µg/mL
7,Cl.Clc1ccc2sc(C3CCNCC3)nc2c1,43.3 µg/mL
8,CCOC(=O)c1cnc2c(OC)cccc2c1Oc1ccccc1,7.2 µg/mL
9,COc1ccccc1NC(=O)c1coc(=O)c(Br)c1,5.4 µg/mL
10,O=C(CCCn1cnc([N+](=O)[O-])n1)Nc1cc(Cl)ccc1O,> 48.9 µg/mL
11,Cc1cccc(NC(=O)c2c(O)c3ccccc3n(C)c2=O)c1,< 0.3 µg/mL
12,O=c1oc2c(O)cccc2cc1-c1nc2ccccc2[nH]1,1.1 µg/mL
13,O=C(CNC(=O)c1ccccc1)OCN1C(=O)c2ccccc2C1=O,> 50.7 µg/mL
14,O=C(NCCc1cccc(Cl)c1)c1ccc2c(c1)OCO2,5.8 µg/mL
15,O=C(CCc1ccc(S(=O)(=O)N2CCOCC2)cc1)Nc1ccc(F)c(F)c1F,44.6 µg/mL
16,C=CCNC(=O)COc1cc(C)cc(C)c1C,30.8 µg/mL
17,Cc1c(C(=O)O)sc2[nH]c(=O)n(Cc3ccccc3)c(=O)c12,45.7 µg/mL
18,O=C(Cc1ccccc1)NCC(=O)N1CCCCC1,> 39.1 µg/mL
19,COC(=O)c1ccc(NC(=O)Nc2ccc(OC)cc2)cc1,1.4 µg/mL
20,COc1ccc(C(=O)NCc2ccccn2)cc1[N+](=O)[O-],> 43.1 µg/mL
21,COC(=O)c1ccc(C(=O)OC)c(NC(=O)c2cccnc2)c1,2.3 µg/mL

row,SMILES,solubility kinetic
1,CCOc1ncccc1-c1nc(-c2cccs2)no1,1.8 µg/mL
2,C=CCNc1nc2c(c(=O)[nH]c(=O)n2C)n1CCCc1ccccc1,5.2 µg/mL
3,COc1ccc(C2NC(c3ccc(OC)cc3)C(C)C(=O)C2C)cc1 (stereo unspecified),12.2 µg/mL
4,S=C(NCc1ccccc1)Nc1ccncc1,30 µg/mL
5,O=C(Nc1ccc(Cl)cc1N1CCOCC1)C1CC1,> 42.1 µg/mL
6,NC(=O)NC(CC(=O)NCCc1ccccn1)c1ccccc1Cl (stereo unspecified),> 52 µg/mL
7,COc1ccccc1OCCn1ccnc1,> 32.7 µg/mL
8,O=S(=O)(Nc1ccon1)c1ccc(F)c(F)c1,25.9 µg/mL
9,O=C1C(=O)N(CC2COc3ccccc3O2)c2ccccc21 (stereo unspecified),40.6 µg/mL
10,CCN1c2ccccc2N(C)C1(C)c1ccccc1 (stereo unspecified),21.5 µg/mL
11,COc1ccc(C2c3ccc(O)cc3Oc3ncn(CCCO)c(=N)c32)cc1 (stereo unspecified),> 56.9 µg/mL
12,CCN(Cc1nc(-c2cccc(C)c2)no1)C(=O)c1ccco1,44.4 µg/mL
13,COc1ccc(NC(=O)CO/N=C2/CCCc3nonc32)c(OC)c1,> 52 µg/mL
14,COc1cccc(C(=O)O/N=C(\C)c2cnccn2)c1,30.7 µg/mL
15,Cc1ccc(O)c(CNc2cccc(C)n2)c1,22.5 µg/mL
16,COCCCNC(=O)c1cn(C)c(=O)c2c1c1ccccc1n2C,19.8 µg/mL
17,Cn1ncc([N+](=O)[O-])c1C(=O)Nc1ccccc1,> 36.9 µg/mL
18,CCNC(=O)CC1SC(=Nc2ccc(C)c([N+](=O)[O-])c2)N(C)C1=O (stereo unspecified),> 52.6 µg/mL
19,COC(=O)c1cc(-c2ccccc2)nc2nc(SC)[nH]c(=O)c12,9.8 µg/mL
20,CN(C(=O)CSc1nnnn1C)C1(C#N)CCCCC1,> 44.2 µg/mL
21,O=S(=O)(CCSc1ccc(C(F)(F)F)cn1)c1ccc(Cl)cc1,< 0.8 µg/mL

row,SMILES,solubility kinetic
1,Cc1cccc(NC(=O)C(=O)C2C(=O)Nc3ccccc32)c1 (stereo unspecified),> 44.1 µg/mL
2,Cc1ccn2cc(CCNC(=O)COc3ccccc3)nc2c1,40.6 µg/mL
3,CC1(C)Cc2nc3sc(C(N)=O)c(N)c3cc2CO1,> 41.6 µg/mL
4,Cc1ccc(C)c(NC(=O)CC2Oc3ccccc3NC2=O)c1 (stereo unspecified),1.1 µg/mL
5,Cc1cc(C)nc(SCC(=O)NC(=O)c2ccccc2O)n1,> 47.6 µg/mL
6,CC1(C)CN(C(=S)Nc2ccc(F)cc2F)C1=O,5.1 µg/mL
7,CC1CCN(Cc2nc(Cl)c3c4c(sc3n2)CCC4)CC1,27.4 µg/mL
8,O=C(OCC(=O)N1CCCC1)c1ccccc1O,36.1 µg/mL
9,O=C(Oc1ccc(Cl)c2cccnc12)c1cccnc1,30 µg/mL
10,Cc1c(C(=O)Oc2ccc(Cl)cc2)n(C)oc1=O,37 µg/mL
11,CN1CCN(C(=O)CSc2ccc(Cl)cc2)CC1,> 42.7 µg/mL
12,Cc1ccc(Nc2cc(=O)[nH]c(=O)[nH]2)cc1Cl,2 µg/mL
13,Cc1ccc(C)c(NC(=S)N2CCN(S(C)(=O)=O)CC2)c1,> 49.1 µg/mL
14,CCOc1ccc(C(=O)OCC(=O)NC2CCCC2)cc1OCC,17.7 µg/mL
15,O=CN(c1ccccc1)c1ccc2ccccc2c1,14.2 µg/mL
16,CC1CCCCC12NC(=O)N(CC(=O)Nc1ccc(OC(F)F)cc1)C2=O (stereo unspecified),18.2 µg/mL
17,CC(C)c1ccccc1NC(=O)CC1(CC(=O)O)CCCC1,> 45.5 µg/mL
18,COc1ccc(NC(=O)O/N=C/c2ccc(N(C)C)cc2)cc1,2.8 µg/mL

# The next lines start with the values.
row,solubility kinetic,SMILES
1,> 32.3 µg/mL,O=C(O)CCCC(=O)Nc1nncs1
2,5.2 µg/mL,O=C(O)/C=C/C(=O)NCc1csc2ccccc12
3,7 µg/mL,Cc1ccc2c(c1)NC(=O)c1cccc([N+](=O)[O-])c1CO2
4,> 46.1 µg/mL,C=CCN=C1CC(C)(C)C(C(=O)OC)C(O)=C1C(=O)CCC (stereo unspecified)
5,44.3 µg/mL,O=C(NCCCNC(=O)c1cc(Cl)ccc1Cl)c1ccco1
6,0.5 µg/mL,CCn1c(SCc2ccc(F)cc2)nc2ccccc2c1=O
7,17.6 µg/mL,CCc1ccc(CNC(=O)C(=O)NCC2CCCO2)cc1 (stereo unspecified)
8,3.1 µg/mL,CCCCCCNc1nc(Cl)nc(NC(C)(C)CO)n1
9,> 32 µg/mL,OC1CCN(CC(O)C(F)(F)F)CC1 (stereo unspecified)
10,> 48.7 µg/mL,COCCN1CCn2c(nc3cc(NS(C)(=O)=O)ccc32)C1
11,43.6 µg/mL,COc1ccc([N+](=O)[O-])c(OC)c1C(=O)NC(=O)Nc1nc(C)cc(C)n1
12,41.7 µg/mL,CCC(C(=O)N1CCN(c2ncccn2)CC1)c1ccccc1 (stereo unspecified)
13,> 55.2 µg/mL,O=C(O)CCCC(=O)Nc1ccc(Oc2cccc(C(F)(F)F)c2)nc1
14,> 53.7 µg/mL,CCOP(=O)(OCC)/C(=N/OC(=O)c1ccc(OC)cc1)C(N)=O
15,> 48.8 µg/mL,CN(C)c1ccc(/C=N/NC(=O)CNC(=O)c2ccncc2)cc1
16,45.7 µg/mL,CCOC(=O)CC(=O)NC(CC(=O)OC)c1ccc(Br)cc1 (stereo unspecified)
17,> 47.1 µg/mL,Cc1nn(CC(=O)NCc2cccc(F)c2)c(=O)c2cccn12
18,> 48.2 µg/mL,CCOCCn1c(N2CCCC2)nc2c1c(=O)n(C)c(=O)n2C
19,11.5 µg/mL,O=C(/C=C/c1ccc([N+](=O)[O-])cc1)Nc1cccc(S(=O)(=O)NC2=NCCCCC2)c1
20,> 53.6 µg/mL,O=C(COc1cc(F)ccc1[N+](=O)[O-])NCCN1C(=O)CSC1=O

row,solubility kinetic,SMILES
1,8.8 µg/mL,CC(C)Cn1c(N)c(C(=O)COC(=O)c2ccc(Br)cc2)c(=O)n(C)c1=O
2,3.9 µg/mL,Cc1ccc2nc(Nc3ccccc3)cc(C)c2c1
3,> 37.4 µg/mL,Cc1cc(=O)n(Cc2ccccc2)c2ccccc12
4,36.2 µg/mL,Cc1ccc(NC(=O)N2CCCc3ccccc32)cc1
5,57.2 µg/mL,CC1CC(C)CN(c2ccc(NS(=O)(=O)c3ccccc3)cc2C(=O)O)C1 (stereo unspecified)
6,1.3 µg/mL,COc1cccc(NC(=O)COc2ccc3c(c2)CCC3)c1
7,9.1 µg/mL,Cc1ccc(C(C)NC(=S)NC2CCCCC2)c(C)c1 (stereo unspecified)
8,> 50.2 µg/mL,O=C(Cc1ccccc1F)NCC1(N2CCOCC2)CCCCC1
9,38.7 µg/mL,O=C(CSc1nc2ccccc2[nH]1)NC1CCCC1
10,1.3 µg/mL,O=C1c2ccccc2C(O)(c2ccccc2)N1CCc1ccccc1 (stereo unspecified)
11,11.1 µg/mL,COC(=O)c1sccc1NC(=O)Nc1cc(C)ccc1OC
12,15 µg/mL,O=Cc1cccn1-c1ccc2ccccc2c1
13,> 48.1 µg/mL,CC(=O)N1CCN(S(=O)(=O)c2ccc(Cl)cc2F)CC1
14,27.7 µg/mL,CC(C)CCOc1cccc(OCC(=O)Nc2ccncc2)c1
15,32.1 µg/mL,O=C1NC2(CCCCCC2)C(=O)N1Cc1cccc([N+](=O)[O-])c1
16,40.7 µg/mL,O=C(NC1CCN(Cc2ccc(F)cc2)CC1)c1ccccc1
17,> 44.1 µg/mL,Cc1cc(NC(=O)CSc2nc(C)c(C)c(=O)[nH]2)no1
18,> 51.8 µg/mL,COc1ccc(CNC(=O)CCC(=O)c2ccc(F)cc2)cc1OC
19,0.9 µg/mL,CN(C)c1cc(-c2ccc([N+](=O)[O-])cc2)oc(=O)c1Cl
20,48 µg/mL,O=C(Nc1ccccc1)c1ccccc1OS(=O)(=O)c1ccccc1
